Results reported in patent US20080026073A1, “METHOD AND COMPOSITION FOR LITHIUM ADDITIVE IN TREATMENT OF GLUTAMATE TOXICITY” (priority 2006, published 2008).

Test system: retinal ganglion cells
Experiment: NMDA-induced glutamate toxicity mouse model for glaucoma: count of surviving retinal ganglion cells after oral feeding
Type: in vivo, mice
Details: for survival efficacy (percent of retinal ganglion cells that survive relative to no treatment): Example 3, FIG. 3, separate mouse pools

## O=C([O-])c1cc(=O)[nH]c(=O)[nH]1.[Li+] [Lithium, lithium orotate]
Example 1, FIG. 1, mice, oral ingestion, human equivalent dosage Lithium 5.8 mg lithium orotate per day, St. Johns Wort 2-4 grams per day
  increase in the surviving ganglion cells: about 15%
Example 2, FIG. 2, mice, gavage eight days, intravitreal NMDA 150 mM 0.5 microliter after six days, Li orotate 63 μg/day, herb 32 mg per mouse per day
  survival rate of retinal ganglion cells: about 15%
1/5th the dosage, human equivalent 1.16 mg lithium orotate
  survival efficacy (percent of retinal ganglion cells that survive relative to no treatment): approximately 13%
5 times the dosage, human equivalent 29 mg lithium orotate
  survival efficacy (percent of retinal ganglion cells that survive relative to no treatment): approximately 8%
